Data from paper PMC2732992 (Proteins, 2009).

How the values were obtained:
[1] = system: GluR2o / GluR3o expressed in insect cells; settings: cited from earlier work; for Affinity for GluR2o higher than for GluR3o: receptors expressed in insect cells
[2] = target: GluR2o S1S2 domain (Rattus norvegicus, UniProt P19491, DEL528-650/S652T/V651G); test: Inhibition of [3H]AMPA binding to GluR2o S1S2; settings: GluR2 S1S2 vs GluR3 S1S2, inhibition of [3H]AMPA binding

Row | SMILES | Affinity of homomeric GluR2 greater than GluR3 ([1]; homomeric receptors, same expression system (insect cells)) | Difference in affinity (IC50) between GluR2 S1S2 and GluR3 S1S2 [2] | Affinity for GluR2o higher than for GluR3o [1] [fold]
1 | NC(Cc1onc(O)c1Cl)C(=O)O (stereo not shown) [Cl-HIBO, 4-chlorohomoibotenic acid] | approximately 100 fold | ten-fold | –
2 | N[C@@H](Cn1cc(F)c(=O)[nH]c1=O)C(=O)O [fluorowillardiine] | – | – | 10
3 | N[C@@H](Cn1ccc(=O)[nH]c1=O)C(=O)O [willardiine] | – | – | 10
